Laboratory results taken from patent publication US11306115B2, “Aminoglycoside derivatives and uses thereof in treating genetic disorders” (priority 2015, dated 2022).
Entries after “also recorded” stand apart in the source; their conditions may differ.

Tests used:
[1] = test system: Rett syndrome causing premature stop codon mutations R168X, R270X and R294X; format: cell-based, human; details: offered as explanation of limited readthrough level, 0.3 and 1 mM
[2] = test system: Rett syndrome R168X, R270X and R294X nonsense mutations; assay: Readthrough activity in cell-free assay, Rett syndrome nonsense mutations suppression; format: biochemical, rabbit; details: 5 μM, FIGS. 8A-C; for firefly/renilla expression ratio compared with the control, wild type cell extracts: WT
Method: (§1) The plasmids were transcribed in vitro and translated using rabbit reticulocytes (TNT mix) and then tested for the expression levels of the firefly and renilla luciferases. WT plasmids expressed both firefly and renilla luciferases while mutant plasmids expressed only the renilla luciferase due to the stop codon found in the inserted sequence. The readthrough assays were conducted for the tested compounds and the controls by adding the compounds to the in vitro transcription/translation reaction mixture. In case the compounds exerted suppression of the premature nonsense/stop codon mutation, the firefly luciferase was expressed and a fold-change in its expression was observed.
FIGS. 8A-C present the results of Rett syndrome R168X (FIG. 8A), R270X (FIG. 8B) and R294X (FIG. 8C) nonsense mutations suppression cell-free assays conducted for six exemplary compounds according to embodiments of the present invention, NB144, NB145, NB146, NB150, NB151 and NB152, at a concentration of 5 μM. As shown therein, when compared with the control (non-treated cell extracts), the wild type cell extracts are unaffected (approx. 100%); however, in all three Rett syndrome mutation models there is a significant impact of the different treatments on the readthrough activity (>>>100%).

[3] = test system: cystic fibrosis G542X nonsense mutation; assay: Readthrough activity in cell-free assay, cystic fibrosis G542X nonsense mutation suppression dose-response; format: biochemical, rabbit; details: concentration range 0-50 μM; for mutation suppression activity (firefly expression and firefly/renilla expression ratio, G542X mutant sequence): FIGS. 4-7; for protein synthesis inhibitory effect (expression levels up or downstream of the WT sequence): FIGS. 4A, 4C, 4E, 6
Method: as §1
Readthrough activity of Cystic Fibrosis (CF) mutation G542X was tested using the compounds presented in Table 1, and the mutation suppression was calculated based on firefly/renilla expression ratio values, and normalized with respect to the expression level of the WT and the control sample (no tested compound).

Row | SMILES | cytotoxicity [1] | readthrough activity, comparison in words [2] | firefly/renilla expression ratio compared with the control, wild type cell extracts [2] | mutation suppression activity (firefly expression and firefly/renilla expression ratio, G542X mutant sequence) [3] | protein synthesis inhibitory effect (expression levels up or downstream of the WT sequence) [3]
1 | CN[C@@H]1[C@@H](O)[C@@H](O[C@@H]2[C@@H](O)[C@H](O[C@H]3O[C@H]([C@@H](C)O)[C@@H](O)[C@H](O)[C@H]3N)[C@@H](N)C[C@H]2N)OC[C@]1(C)O [Compound G418] | significant cytotoxicity |  |  |  | 
2 | C[C@@H](O)C1O[C@H](O[C@@H]2C(N)C[C@@H](NC(=O)C(O)CCN)C(O)C2O[C@@H]2O[C@H](CNC(=N)N)C(O)C2O)C(N)C(O)[C@@H]1O (stereo in doubt) [NB152] |  | higher activity compared to NB150 and NB151 | approx. 100% | notable dose-dependent readthrough activity | protein synthesis inhibition
3 | C[C@@H](O)C1O[C@H](O[C@@H]2C(N)CC(NC(=N)N)[C@@H](O)C2O)C(N)[C@H](O)[C@@H]1O (stereo in doubt) [NB150] |  |  | approx. 100% | notable dose-dependent readthrough activity | 
4 | C[C@@H](O)C1O[C@H](O[C@@H]2C(N)CC(NCc3ccccc3)[C@@H](O)C2O)C(N)C(O)[C@@H]1O (stereo in doubt) [NB145] |  |  | approx. 100% | notable dose-dependent readthrough activity | 
5 | CCCNC1CC(N)[C@@H](O[C@H]2OC([C@@H](C)O)[C@@H](O)C(O)C2N)C(O)[C@@H]1O (stereo in doubt) [NB146] |  | better activity compared to NB144 and NB145 | approx. 100% | clearly dose-dependent; also recorded: notable dose-dependent readthrough activity | more protein synthesis inhibitory effect
6 | C[C@@H](O)C1O[C@H](O[C@@H]2C(N)C[C@@H](N)C(O)C2O[C@@H]2O[C@H](CNC(=N)N)C(O)C2O)C(N)C(O)[C@@H]1O (stereo in doubt) [NB151] |  |  | approx. 100% | notable dose-dependent readthrough activity | 
7 | CC(C)CNC1CC(N)[C@@H](O[C@H]2OC([C@@H](C)O)[C@@H](O)C(O)C2N)C(O)[C@@H]1O (stereo in doubt) [NB144] |  |  | approx. 100% | notable dose-dependent readthrough activity | 
